Patent publication US9133206B2, “Benzodiazepine and pyridodiazepine derivatives” (AbbVie Inc., priority 2010, dated 2015)
pEC50: −log10 of the molar value.

System: SK-N-SH human neuroblastoma cells
Experiment: Serum Deprivation/JC-1 Mitochondrial Membrane Potential (MMP) Assay
Format: cell-based
Conditions: for pEC50: serum deprivation ~18 hours, JC-1 ratio normalized to peak value for 10 μM dimebolin, single curve fit to mean data of n=2-3; for Emax / JC-1 max %: percent maximal intensity in JC-1 ratio normalized to peak value for 10 μM dimebolin, serum deprivation; for Emax: read-out: JC-1 max %
Text: The method also involves a high-throughput assay using serum-deprivation conditions involving neuronal cells to screen for compounds that increase or preserve mitochondrial membrane potential. Such compounds can be found to aid in rescuing cells from energy-depletion that occurs in several neurodegenerative states. Mitochondrial-mediated apoptosis occurs in response to a wide range of apoptotic stimuli including p^53, c-myc, DNA damage, prooxidants, chemotherapeutic agents, serum starvation and death receptor activation (Lin C—H., Lu Y-Z., Cheng, F-C., Chu L-F. and Hsuch C-M. Bax-regulated mitochondrial-mediated apoptosis is responsible for the in vitro ischemia induced neuronal cell death of Sprague Dawley rat. Neuroscience Lett. 2005, 387, 22-27).
Thus, this stress inducer, serum deprivation, combined with monitoring changes in the mitochondrial membrane potential in a 96-well format allows for the establishment of an efficient high-throughput screen (HTS) in order to evaluate the ability of compounds to increase mitochondrial membrane potential in the presence of stress and preserve health of the cell. Exemplary procedures for conducting such high-throughput assay are provided below.
SK-N-SH human neuroblastoma cells obtained from American Type Culture Collection (Rockville, Md.) were maintained in the log phase of growth in Minimal Essential Media (MEM), 10% heat inactivated fetal calf serum and 100 units/mL antibiotic-antimycotic (AA). Cells were cultured and maintained in a humidified incubator at 37° C. under 5% CO2 and 95% air. Cells were trypsinized (0.25%) and subcultured every 3 days and used from 15-18 passages. All cell culture supplies were obtained from Invitrogen (Carlsbad, Calif.).
SK-N-SH cells were plated 2-3 days in advance at a concentration of 50,000 cells/well onto collagen coated black-walled 96 well plates (Becton-Dickinson, Bedford, Mass.) in a total volume of […]. On day of experimental treatment, the media containing serum was aspirated from each well and rinsed once with MEM/1% AA without serum. The cells then were incubated overnight in 100 μL of MEM/1% AA (no serum) with and without dimebolin or novel chemical entities overnight for ˜18 hours. The following day, JC-1 dye (5,5′,6,6′-tetrachloro-1,1′,3,3′-tetraethylbenzimidazolcarbocyanide) was diluted 1:10 into MEM media according to the JC-1 Mitochondrial Membrane Potential Assay Kit: (Cayman Chemical Company, Ann Arbor, Mich.) and then 10 μL of the JC-1 dye solution was added to each well. The plates were centrifuged for 5 minutes at 400×g at room temperature followed by 40 minute incubation at 37° C. The plates were washed twice with 200 μL of provided Assay Buffer followed an addition of 100 μL of Assay Buffer to each well. The plates were read with an excitation and emission of 560 nm and 595 nM for red fluorescence and with an excitation and emission of 485 nm and 535 nM for green fluorescence to determine the final JC-1 value taking the red to green fluorescence ratio. This assay is based on change in mitochondrial membrane potential (MMP) using this lipophilic cationic dye, JC-1, by monitoring the changes in the ratio of red to green fluorescence as the MMP depolarizes. This change in MMP reflects the health of the cell with healthy, viable cells have a high JC-1 ratio and high MMP whereas apoptotic, unhealthy cells have a low JC-1 ratio or low MMP.
For the ability of compounds to reverse the stress due to serum deprivation and increase the JC-1 ratio, the percent maximal intensity in JC-1 ratio was normalized to that induced by the peak value for 10 μM dimebolin and plotted against the compound concentration to calculate EC50 values and to control for plate-to-plate variability. Concentration-response data were analyzed using GraphPad Prism (San Diego, Calif.); the EC50 values were derived from a single curve fit to the mean data of n=2-3, in duplicates. […]

Row | SMILES | pEC50 (Homo sapiens, SK-N-SH, 18 h) | Emax (Homo sapiens, SK-N-SH) [%] | JC-1 max % [%] | pEC50
1 | O=C([C@@H]1C[C@H]1c1ccccc1)N1Cc2ccccc2N2CCN(Cc3ccccc3)CC2C1 (relative stereo) [Example 15, (3-benzyl-1,2,3,4,4a,5-hexahydropyrazino[1,2-a][1,4]benzodiazepin-6(7H)-yl)[trans-2-phenylcyclopropyl]methanone] | 5.66 | 225 |  | 
2 | Fc1ccc(CN2CCN3c4ccccc4CN(Cc4ccc(Br)cc4)C[C@H]3C2)cc1 (single isomer, unassigned) [Example 61] | 5.59 | 213 |  | 
3 | Fc1ccc(CN2CCN3c4ccccc4CN(Cc4ccc(Br)cc4)C[C@@H]3C2)cc1 (single isomer, unassigned) [Example 62] | 5.44 | 161 |  | 
4 | Brc1ccc(CN2Cc3ccccc3N3CCN(Cc4ccccc4)CC3C2)cc1 (single isomer, unassigned; (+)) [Example 19, (+)-3-benzyl-6-(4-bromobenzyl)-1,2,3,4,4a,5,6,7-octahydropyrazino[1,2-a][1,4]benzodiazepine] |  |  | 169 | 5.81
5 | Brc1ccc(CN2Cc3ccccc3N3CCN(Cc4ccccc4)CC3C2)cc1 (single isomer, unassigned; (-)) [Example 18, (−)-3-benzyl-6-(4-bromobenzyl)-1,2,3,4,4a,5,6,7-octahydropyrazino[1,2-a][1,4]benzodiazepine] |  |  | 178 | 5.57
6 | CC(C)(C)OC(=O)N1CCN2c3ccccc3CNC(=O)C2C1 (stereo not drawn) [Example 1, tert-butyl 5-oxo-1,2,4a,5,6,7-hexahydropyrazino[1,2-a][1,4]benzodiazepine-3(4H)-carboxylate] | 5.02 | 88 |  | 
7 | c1ccc(CN2CCN3c4ccccc4CNCC3C2)cc1 (stereo not drawn) [Example 2, 3-benzyl-1,2,3,4,4a,5,6,7-octahydropyrazino[1,2-a][1,4]benzodiazepine] | 5.46 | 186 |  | 
8 | Brc1ccc(CN2Cc3ccccc3N3CCN(Cc4ccccc4)CC3C2)cc1 (stereo not drawn) [Example 3, 3-benzyl-6-(4-bromobenzyl)-1,2,3,4,4a,5,6,7-octahydropyrazino[1,2-a][1,4]benzodiazepine] |  |  | 226 | 5.54
9 | O=C(Cc1ccccc1)N1Cc2ccccc2N2CCN(Cc3ccccc3)CC2C1 (stereo not drawn) [Example 4, 1-(3-benzyl-1,2,3,4,4a,5-hexahydropyrazino[1,2-a][1,4]benzodiazepin-6(7H)-yl)-2-phenylethanone] | 5.62 | 263 |  | 
10 | O=C(c1ccccc1)N1Cc2ccccc2N2CCN(Cc3ccccc3)CC2C1 (stereo not drawn) [Example 5, (3-benzyl-1,2,3,4,4a,5-hexahydropyrazino[1,2-a][1,4]benzodiazepin-6(7H)-yl)(phenyl)methanone] | 5.17 | 57 |  | 
11 | c1ccc(CN2CCN3c4ccccc4C[N+](Cc4ccccc4)(Cc4ccccc4)CC3C2)cc1 (stereo not drawn) [Example 6, 3,6,6-tribenzyl-1,2,3,4,4a,5,6,7-octahydropyrazino[1,2-a][1,4]benzodiazepin-6-ium] |  |  | 148 | 5.19
12 | c1ccc(CN2CCN3c4ccccc4CN(Cc4ccccc4)CC3C2)cc1 (stereo not drawn) [Example 7, 3,6-dibenzyl-1,2,3,4,4a,5,6,7-octahydropyrazino[1,2-a][1,4]benzodiazepine] | < 4.52 | 24 |  | 
13 | CN1Cc2ccccc2N2CCN(Cc3ccccc3)CC2C1 (stereo not drawn) [Example 8, 3-benzyl-6-methyl-1,2,3,4,4a,5,6,7-octahydropyrazino[1,2-a][1,4]benzodiazepine] | 5.52 | 204 |  | 
14 | c1ccc(CN2CCN3c4ccccc4CN(c4ncccn4)CC3C2)cc1 (stereo not drawn) [Example 9, 3-benzyl-6-(pyrimidin-2-yl)-1,2,3,4,4a,5,6,7-octahydropyrazino[1,2-a][1,4]benzodiazepine] | 5.59 | 158 |  | 
15 | O=C(c1ccc(F)cc1)N1Cc2ccccc2N2CCN(Cc3ccccc3)CC2C1 (stereo not drawn) [Example 10, (3-benzyl-1,2,3,4,4a,5-hexahydropyrazino[1,2-a][1,4]benzodiazepin-6(7H)-yl)(4-fluorophenyl)methanone] | 5.56 | 248 |  | 
16 | c1ccc(CN2CCN3c4ccccc4CN(c4cnccn4)CC3C2)cc1 (stereo not drawn) [Example 11, 3-benzyl-6-(pyrazin-2-yl)-1,2,3,4,4a,5,6,7-octahydropyrazino[1,2-a][1,4]benzodiazepine] | 5.25 | 122 |  | 
17 | O=C(c1cnccn1)N1Cc2ccccc2N2CCN(Cc3ccccc3)CC2C1 (stereo not drawn) [Example 12, (3-benzyl-1,2,3,4,4a,5-hexahydropyrazino[1,2-a][1,4]benzodiazepin-6(7H)-yl)(pyrazin-2-yl)methanone] | 5.95 | 198 |  | 
18 | O=C(N1Cc2ccccc2N2CCN(Cc3ccccc3)CC2C1)C1(c2ccccc2)CC1 (stereo not drawn) [Example 13, (3-benzyl-1,2,3,4,4a,5-hexahydropyrazino[1,2-a][1,4]benzodiazepin-6(7H)-yl)(1-phenylcyclopropyl)methanone] | 5.38 | 175 |  | 
19 | O=C(N1CCOCC1)N1Cc2ccccc2N2CCN(Cc3ccccc3)CC2C1 (stereo not drawn) [Example 14, (3-benzyl-1,2,3,4,4a,5-hexahydropyrazino[1,2-a][1,4]benzodiazepin-6(7H)-yl)(morpholin-4-yl)methanone] | 6.12 | 203 |  | 
20 | c1ccc(CN2CCN3c4ccccc4CN(c4ccccn4)CC3C2)cc1 (stereo not drawn) [Example 16, 3-benzyl-6-(pyridin-2-yl)-1,2,3,4,4a,5,6,7-octahydropyrazino[1,2-a][1,4]benzodiazepine] | 5.44 | 131 |  | 
21 | Fc1ccc(CN2Cc3ccccc3N3CCN(Cc4ccccc4)CC3C2)cc1 (stereo not drawn) [Example 17, 3-benzyl-6-(4-fluorobenzyl)-1,2,3,4,4a,5,6,7-octahydropyrazino[1,2-a][1,4]benzodiazepine] | 5.35 | 183 |  | 
22 | O=C(/C=C/c1ccccc1)N1Cc2ccccc2N2CCN(Cc3ccccc3)CC2C1 (stereo not drawn) [Example 20, (2E)-1-(3-benzyl-1,2,3,4,4a,5-hexahydropyrazino[1,2-a][1,4]benzodiazepin-6(7H)-yl)-3-phenylprop-2-en-1-one] | 5.26 | 133 |  | 
23 | FC(F)(F)c1ccc(CN2Cc3ccccc3N3CCN(Cc4ccccc4)CC3C2)cc1 (stereo not drawn) [Example 21, 3-benzyl-6-[4-(trifluoromethyl)benzyl]-1,2,3,4,4a,5,6,7-octahydropyrazino[1,2-a][1,4]benzodiazepine] | 5.21 | 168 |  | 
24 | CN1CCN2c3ccccc3N(Cc3ccc(Br)cc3)CCC2C1 (stereo not drawn) [Example 22, 7-(4-bromobenzyl)-3-methyl-1,2,3,4,4a,5,6,7-octahydropyrazino[1,2-a][1,5]benzodiazepine] | 5.53 | 173 |  | 
25 | Fc1cc(CN2Cc3ccccc3N3CCN(Cc4ccccc4)CC3C2)ccc1Br (stereo not drawn) [Example 23, 3-benzyl-6-(4-bromo-3-fluorobenzyl)-1,2,3,4,4a,5,6,7-octahydropyrazino[1,2-a][1,4]benzodiazepine] | 5.24 | 238 |  | 
26 | Fc1cc(F)cc(CN2Cc3ccccc3N3CCN(Cc4ccccc4)CC3C2)c1 (stereo not drawn) [Example 24, 3-benzyl-6-(3,5-difluorobenzyl)-1,2,3,4,4a,5,6,7-octahydropyrazino[1,2-a][1,4]benzodiazepine] | 5.32 | 166 |  | 
27 | Fc1ccc(CN2Cc3ccccc3N3CCN(Cc4ccccc4)CC3C2)cc1F (stereo not drawn) [Example 25, 3-benzyl-6-(3,4-difluorobenzyl)-1,2,3,4,4a,5,6,7-octahydropyrazino[1,2-a][1,4]benzodiazepine] | 4.80 | 128 |  | 
